We go through eleven molecules from patent US10280166B2, “2-(1H-indazol-3-yl)-3H-imidazo[4,5-B]pyridine and therapeutic uses thereof” (Samumed, LLC, priority 2014, dated 2019).

Broadly, the IC50 is the concentration at which inhibition is half-maximal. A higher IC50 goes with weaker potency in that assay. What is called EC50 is the concentration needed to bring the measured effect to its halfway point.

Assay [1] concerns Wnt activity (SW480 colon carcinoma cells stably expressing the Sp5-Luc reporter gene). Kind of assay: Sp5-Luc reporter gene screening assay for Wnt activity in SW480 cells. Type of assay: cell-based. The note with it: Homo sapiens, 42 h incubation, luminescence. The source says:
The screening assay for Wnt activity is described as follows. Reporter cell lines can be generated by stably transducing cancer cell lines (e.g., colon cancer) or primary cells (e.g., IEC-6 intestinal cells) with a lentiviral construct that includes a Wnt-responsive promoter driving expression of the firefly luciferase gene.
SW480 colon carcinoma cells were transduced with a lentiviral vector expressing luciferase with a human Sp5 promoter consisting of a sequence of eight TCF/LEF binding sites. SW480 cells stably expressing the Sp5-Luc reporter gene and a hygromycin resistance gene were selected by treatment with 150 μg/ml of hygromycin for 7 days. These stably transduced SW480 cells were expanded in cell culture and used for all further screening activities. For Sp5-Luc reporter gene assays, the cells were plated at 10,000 cells/well in 96-well plates with growth medium containing 10% fetal calf serum and incubated overnight at 37° C. and 5% CO2. Each compound was dissolved in DMSO as a 10 mM stock in standard j-vials and used to prepare compound source plates in dose-response format with 3-fold serial dilutions and a 10 mM top concentration. Compound transfer from serially diluted source plates to assay plates containing the cells was accomplished using a pintool (Multimek 96, Beckman equipped with V&P Scientific FP1S50H pins) based liquid handling protocol. This protocol used a slotted pin to transfer 50 nl of compound from a source plate well to an assay plate well containing 50 μl of cells in growth medium. […] Control wells received 50 nl of DMSO treatment for normalization and calculating IC50 values. The treated cells were incubated at 37° C. and 5% CO2 for an additional forty-two hours. Following incubation, the growth medium was removed and 50 μl of BrightGlo luminescence reagent (Promega) was added to each well of the 96-well assay plates. The plates were placed on an orbital shaker for 5 min and then luminescence was quantified on the Victor3 (Perkin Elmer) plate reader. Readings were normalized to DMSO only treated cells, and normalized activities were utilized for IC50 calculations using the dose-response log (inhibitor) vs. response—variable slope (four parameters) nonlinear regression feature available in GraphPad Prism 5.0 or 6.0.
On the technique in general: A reporter such as luciferase makes a cellular process visible.

The test system of assay [2] is primary human fibroblasts derived from IPF patients (LL29 cells). Briefly: Inhibition of fibrosis (αSMA) in TGF-β1 treated primary human fibroblasts from IPF patients. The note with it: Fibroblast, 96 h, TGF-β1 20 ng/mL, 4 days, % αSMA positive cells. In kind it is cell-based. An excerpt:
The above synthesized compounds were screened using primary human fibroblasts (derived from IPF patients) treated with TGF-β1 to determine their ability to inhibit the fibrotic process.
Primary human fibroblasts derived from IPF patients (LL29 cells) [^1Xiaoqiu Liu, et.al., “Fibrotic Lung Fibroblasts Show Blunted Inhibition by cAMP Due to Deficient cAMP Response Element-Binding Protein Phosphorylation”, Journal of Pharmacology and Experimental Therapeutics (2005), 315(2), 678-687; ^2Watts, K. L., et.al., “RhoA signaling modulates cyclin D1 expression in human lung fibroblasts; implications for idiopathic pulmonary fibrosis”, Respiratory Research (2006), 7(1), 88] were obtained from American Type Culture Collection (ATCC) and expanded in F12 medium supplemented with 15% Fetal Bovine Serum and Penicillin/Streptomycin.
Each compound was dissolved in DMSO as a 10 mM stock and used to prepare compound source plates. Serial dilution (1:2, 11-point dose-response curves from 10 μM to 1.87 nM) and compound transfer was performed using the ECHO 550 (Labcyte, Sunnyvale, Calif.) into 384-well clear bottom assay plates (Greiner Bio-One) with appropriate DMSO backfill for a final DMSO concentration of 0.1%. LL29 cells were plated at 1,500 cells/well in 80 μl/well F12 medium supplemented with 1% Fetal Bovine Serum. One hour after addition of the cells, TGF-β1 (Peprotech; 20 ng/mL) was added to the plates to induce fibrosis (ref. 1 and 2 above). Wells treated with TGF-β1 and containing DMSO were used as controls. Cells were incubated at 37° C. and 5% CO2 for 4 days. Following incubation for 4 days, SYTOX green nucleic acid stain (Life Technologies [Thermo Fisher Scientific]) was added to the wells at a final concentration of 1 uM and incubated at room temperature for 30 min. Cells were then fixed using 4% formaldehyde (Electron Microscopy Sciences), washed 3 times with PBS followed by blocking and permeabilization using 3% Bovine Serum Albumin (BSA; Sigma) and 0.3% Triton X-100 (Sigma) in PBS. Cells were then stained with antibody specific to α-smooth muscle actin (αSMA; Abcam) (ref. 1 and 2 above) in 3% Bovine Serum Albumin (BSA; Sigma) and 0.3% Triton X-100 (Sigma) in PBS, and incubated overnight at 4° C. Cells were then washed 3 times with PBS, followed by incubation with Alexa Flor-647 conjugated secondary antibody (Life Technologies [Thermo Fisher Scientific]) and DAPI at room temperature for 1 hour. Cells were then washed 3 times with PBS and plates were sealed for imaging. αSMA staining was imaged by excitation at 630 nm and emission at 665 nm and quantified using the Compartmental Analysis program on the CellInsight CX5 (Thermo Scientific). Dead or apoptotic cells were excluded from analysis based on positive SYTOX green staining. % of total cells positive for αSMA were counted in each well and normalized to the average of 11 wells treated with TGF-β1 on the same plate using Dotmatics' Studies Software. The normalized averages (fold change over untreated) of 3 replicate wells for each compound concentration were used to create dose-responses curves and EC50 values were calculated using non-linear regression curve fit in the Dotmatics' Studies Software. The EC50 values are reported.

Take `CC(C)Nc1cncc(-c2ccc3[nH]nc(-c4nc5c(-c6cccnc6)ccnc5[nH]4)c3c2)c1` [Compound 90, N-isopropyl-5-(3-(7-(pyridin-3-yl)-3H-imidazo[4,5-b]pyridin-2-yl)-1H-indazol-5-yl)pyridin-3-amine]: in assay [1], the concentration for half-maximal inhibition (IC50) was 12 nM. In assay [2], the EC50 turned out to be 0.078 nM.
The like results for `c1cncc(-c2ccnc3[nH]c(-c4n[nH]c5ccc(-c6cncc(CN7CCCCC7)c6)cc45)nc23)c1` [Compound 93, 2-(5-(5-(Piperidin-1-ylmethyl)pyridin-3-yl)-1H-indazol-3-yl)-7-(pyridin-3-yl)-3H-imidazo[4,5-b]pyridine] were, in that order, above 10000 nM and 0.016 nM.
The like results for `c1ccc(CNCc2cncc(-c3ccc4[nH]nc(-c5nc6c(-c7cccnc7)ccnc6[nH]5)c4c3)c2)cc1` [Compound 101, N-Benzyl-1-(5-(3-(7-(pyridin-3-yl)-3H-imidazo[4,5-b]pyridin-2-yl)-1H-indazol-5-yl)pyridin-3-yl)methanamine] were, in that order, above 10000 nM and 0.235 nM.
The like results for `CCNCc1cncc(-c2ccc3[nH]nc(-c4nc5c(-c6ccccn6)ccnc5[nH]4)c3c2)c1` [Compound 136, N-((5-(3-(7-(Pyridin-2-yl)-3H-imidazo[4,5-b]pyridin-2-yl)-1H-indazol-5-yl)pyridin-3-yl)methyl)ethanamine] were, in that order, 1550 nM and 1.77 nM.
Molecule `O=C(Nc1cncc(-c2ccc3[nH]nc(-c4nc5c(-c6ccccn6)ccnc5[nH]4)c3c2)c1)c1ccccc1` [Compound 141, N-(5-(3-(7-(Pyridin-2-yl)-3H-imidazo[4,5-b]pyridin-2-yl)-1H-indazol-5-yl)pyridin-3-yl)benzamide] had an IC50 in assay [1] of 13.7 nM. For the same molecule, the EC50 in assay [2] came out at 9.99 nM.
The like results for `O=C(Nc1cncc(-c2ccc3[nH]nc(-c4nc5c(-c6ccccn6)ccnc5[nH]4)c3c2)c1)C1CCC1` [Compound 150, N-(5-(3-(7-(Pyridin-2-yl)-3H-imidazo[4,5-b]pyridin-2-yl)-1H-indazol-5-yl)pyridin-3-yl)cyclobutanecarboxamide] were, in that order, 15 nM and 0.133 nM.
The like results for `c1ccc(-c2ccnc3[nH]c(-c4n[nH]c5ccc(-c6cncc(CNCC7CCCC7)c6)cc45)nc23)nc1` [Compound 154, 1-Cyclopentyl-N-((5-(3-(7-(pyridin-2-yl)-3H-imidazo[4,5-b]pyridin-2-yl)-1H-indazol-5-yl)pyridin-3-yl)methyl)methanamine] were, in that order, 1460 nM and 9.99 nM.
The like results for `CCC(=O)Nc1cncc(-c2ccc3[nH]nc(-c4nc5c(N6CCCCC6)ccnc5[nH]4)c3c2)c1` [Compound 157, N-(5-(3-(7-(Piperidin-1-yl)-3H-imidazo[4,5-b]pyridin-2-yl)-1H-indazol-5-yl)pyridin-3-yl)propionamide] were, in that order, 15 nM and 0.605 nM.
For the molecule `CN(C)c1cncc(-c2ccc3[nH]nc(-c4nc5c(N6CCCCC6)ccnc5[nH]4)c3c2)c1` [Compound 163, N,N-Dimethyl-5-(3-(7-(piperidin-1-yl)-3H-imidazo[4,5-b]pyridin-2-yl)-1H-indazol-5-yl)pyridin-3-amine], the IC50 in assay [1] came to 122 nM. In assay [2], this molecule displayed an EC50 of 0.009 nM.
The like results for `CN(C)Cc1cncc(-c2ccc3[nH]nc(-c4nc5c(N6CCCCC6)ccnc5[nH]4)c3c2)c1` [Compound 169, N,N-Dimethyl-1-(5-(3-(7-(piperidin-1-yl)-3H-imidazo[4,5-b]pyridin-2-yl)-1H-indazol-5-yl)pyridin-3-yl)methanamine] were, in that order, 1450 nM and 0.396 nM.
The like results for `O=C(Nc1cncc(-c2ccc3[nH]nc(-c4nc5c(N6CCCCC6)ccnc5[nH]4)c3c2)c1)C1CC1` [Compound 175, N-(5-(3-(7-(Piperidin-1-yl)-3H-imidazo[4,5-b]pyridin-2-yl)-1H-indazol-5-yl)pyridin-3-yl)cyclopropanecarboxamide] were, in that order, 99.3 nM and 9.99 nM.
